According to patent US20220106304A1, “Transcription Factor BRN2 Inhibitory Compounds as Therapeutics and Methods for Their Use” (The University of British Columbia, priority 2018, published 2022):

Key:
BRN2 = biological target: T1, BRN2 (Homo sapiens, UniProt P20265); test: cell-based; settings: negative = activation; for inhibition at 10 µM: read-out: % BRN2 Inhibition (10 μM), 10 μM compound, 24 hours, 42D^ENZR cells stably expressing BRN2-luciferase reporter; for inhibition at 30 µM: read-out: % BRN2 Inhibition (30 μM), 30 μM compound, 24 hours, 42D^ENZR cells stably expressing BRN2-luciferase reporter
T1 sequence (P20265 1-443): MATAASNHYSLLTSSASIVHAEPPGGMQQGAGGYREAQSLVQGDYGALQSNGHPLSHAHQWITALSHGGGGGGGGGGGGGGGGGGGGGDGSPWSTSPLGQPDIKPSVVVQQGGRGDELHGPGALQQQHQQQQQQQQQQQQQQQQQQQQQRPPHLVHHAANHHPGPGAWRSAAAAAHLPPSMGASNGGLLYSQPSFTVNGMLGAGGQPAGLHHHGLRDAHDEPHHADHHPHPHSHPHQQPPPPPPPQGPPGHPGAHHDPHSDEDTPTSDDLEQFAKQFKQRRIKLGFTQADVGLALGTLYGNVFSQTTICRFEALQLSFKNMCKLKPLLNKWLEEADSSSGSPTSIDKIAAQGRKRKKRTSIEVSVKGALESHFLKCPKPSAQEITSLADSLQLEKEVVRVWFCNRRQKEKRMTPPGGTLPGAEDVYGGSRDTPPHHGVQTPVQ
Excerpt: Decreased expression of luciferase protein is validated via western blot to confirm downregulation and avoid false positive molecules that inhibit luciferase protein activity and not BRN2-drive luciferase expression. Molecules are prioritized by their inhibition potency to measure direct interaction with BRN2 in Step 2.
In TABLES 1 and 2, when a single value is mentioned in columns Met Stab % and T½, it refers to compound's stability in MLM and when two values are given they represent HLM/MLM. There is a distinction in TABLES 1 and 2 difference between “Active” and “Specific” or “Specificity”. Compounds are first tested to quantify inhibition of BRN2 transcriptional activity in a luciferase assay to determine “Activity” at […] and 30 μM concentrations. […] Where data is not available “na” is inserted. Where data has yet to be calculated the notation “nc” is used.

[1] = Liver microsome metabolic stability, MLM; assay type: in vitro ADME; settings: MLM (single value or second of two), 1 μM compound, 0.25 mg/mL protein; for Met Stab % (60 mins HLM/MLM): percent remaining at 60 min, 1 mM NADPH; for half-life at 1 µM: mouse, liver microsomes, pH 7.4, read-out: T1/2 in (mins HLM/MLM)
Description: Potassium phosphate buffer (Kphos) was prepared by adding 0.647 g potassium phosphate monobasic (KH2PO4) and 3.527 g potassium phosphate dibasic ([…]) to 400 mL of Milli-Q water. pH of the buffer was adjusted to 7.4 and volume was made up to 500 mL.
Microsomes (20 mg/mL) were diluted in KH2PO4 buffer to prepare a concentration of 0.357 mg/mL.
Stock solutions of BRN2 inhibitors were prepared in DMSO at a concentration of 1 mM
A stock solution of 3.33 mM NADPH (3.33×) was prepared by dissolving appropriate amount of NADPH in KH2PO4 buffer.
Total Incubation volume: 100 μL
Compound concentration: 1 μM
Protein Concentration: 0.25 mg/mL
An 1120 μL aliquot of Kphos buffer (50 mM, pH 7.4) containing liver microsomes (0.357 mg/mL) were added to individual 2 mL tubes (final concentration 0.25 mg/mL). Test compounds (1 mM) and positive controls were directly spiked into respective tubes to prepare a concentration of 1.428 μM (final concentration 1 μM). From the above mix, 70 μL was added to individual wells of 96 well reaction plates and pre-incubated in a 37° C. water bath for 5 min. All the reactions were initiated by adding 30 μL of 3.33 mM NADPH (final concentration 1 mM). Reactions without NADPH and buffer controls (minus NADPH) at 0 min and 60 min were also incubated to rule out non-NADPH metabolism or chemical instability in the incubation buffer. All reactions were terminated using 100 μL of ice-cold acetonitrile containing internal standard at 0, 5, 15, 30 and 60 min. The plates were centrifuged at 4000 RPM for 15 min and 100 μL aliquots were submitted for analysis by LC-MS/MS.
Samples were monitored for parent compounds disappearance in MRM mode using LC-MS/MS.
The percent remaining of test compounds and positive control in each sample was determined by considering peak area ratio in the 0 minute sample as 100%. The Half-life of compounds in microsomes is calculated by formula:
Half-life (t½) (min)=0.693/k, where k is gradient of line determined from plot of peak area ratio (compound peak area/internal standard peak area) against time.
In vitro intrinsic clearance (CL'int) (units in mL/min/kg) was calculated using the formula.
[formula] • For liver microsomes, scaling factor used was 45 mg microsomal protein per gm liver. • Indicates liver weight (gm) which varies species wise. For mice the liver weights are 90 gm.
Where data is not available “na” is inserted.

Row | Compound | inhibition at 10 µM (BRN2) | inhibition at 30 µM (BRN2) | Met Stab % (60 mins HLM/MLM) [1] | half-life at 1 µM [1]
1 | Cn1c(-c2ccc(-c3cccc(C#N)c3)o2)nc2ccccc21 [VPC-18-63, 3-(5-(1-methyl-1H-benzo[d]imidazol-2-yl)furan-2-yl)benzonitrile] | 72% | 94% | 0% | –
2 | FC(F)(F)c1ccc2cc(-c3csc(N4CCCC4)n3)oc2c1 [VPC-18-72, 2-(pyrrolidin-1-yl)-4-(6-(trifluoromethyl)benzofuran-2-yl)thiazole] | 45.9% | 62.4% | 8% | 18 min
3 | FC(F)(F)c1ccc2cc(-c3csc(NC4CC4)n3)oc2c1 [VPC-18-73, N-cyclopropyl-4-(6-(trifluoromethyl)benzofuran-2-yl)thiazol-2-amine] | 78.8% | 95.7% | 2% | 11 min
4 | Cc1c(-c2ccc(-c3ccccc3)o2)oc2ccccc12 [VPC-18-74, 3-methyl-2-(5-phenylfuran-2-yl)benzofuran] | 96.7% | 99% | 2% | 11 min
5 | c1coc(-c2nc(-c3cc4ncccc4o3)cs2)c1 [VPC-18-75, 2-(2-(furan-2-yl)thiazol-4-yl)furo[3,2-b]pyridine] | 71.9% | 91.9% | 0% | –
6 | FC(F)(F)c1ccc2nc(-c3csc(C4=CCOCC4)n3)oc2c1 [VPC-18-77] | 11.3% | 63.4% | 24% | 29 min
7 | FC(F)(F)c1ccc2cc(-c3csc(N4CCOCC4)n3)oc2c1 [VPC-18-78, 4-(4-(6-(trifluoromethyl)benzofuran-2-yl)thiazol-2-yl)morpholine] | 43.6% | 79.6% | 25% | 30 min
8 | N#Cc1ccc2cc(-c3csc(-c4ccco4)n3)oc2c1 [VPC-18-80] | 42% | 44% | 0% | –
9 | Cn1c(-c2ccc(C3CCNCC3)o2)nc2ccc(C(F)(F)F)cc21 [VPC-18-82] | 11% | 50% | 100% | > 60 min
10 | FC(F)(F)c1ccc2cc(-c3csc(NCC4CC4)n3)oc2c1 [VPC-18-86] | 32% | 92% | 5% | 13 min
11 | FC(F)(F)c1ccc2nc(-c3ccc(-c4ccccc4)o3)[nH]c2c1 [VPC-18-87] | 85% | 87% | 37% | 40 min
12 | N#Cc1c(-c2csc(-c3ccco3)n2)oc2ccccc12 [VPC-18-88, 2-(2-(furan-2-yl)thiazol-4-yl)benzofuran-3-carbonitrile] | 76% | 96% | 0% | 9 min
13 | FC(F)(F)c1ccc2cc(-c3csc(C4CCNCC4)n3)oc2c1 [VPC-18-89, 2-(piperidin-4-yl)-4-(6-(trifluoromethyl)benzofuran-2-yl)thiazole] | 65% | 98% | 65% | > 60 min
14 | Clc1ccc2cc(-c3csc(N4CC5CC4CO5)n3)oc2c1 (stereo not drawn) [VPC-18-91, 5-(4-(6-chlorobenzofuran-2-yl)thiazol-2-yl)-2-oxa-5-azabicyclo[2.2.1]heptane] | 70% | 96% | 2% | 11 min
15 | Clc1ccc2nc(-c3ccc(-c4ccccc4)o3)[nH]c2c1 [VPC-18-92, 6-chloro-2-(5-phenylfuran-2-yl)-1H-benzo[d]imidazole] | 83% | 98.4% | 0% | 6 min
16 | Fc1ccc(-c2nc(-c3nc4ccc(C(F)(F)F)cc4o3)cs2)o1 [VPC-18-93] | -9.9% | 30.2% | 26% | 34 min
17 | Clc1ccc2cc(-c3csc(-c4ccn[nH]4)n3)oc2c1 [VPC-18-96, 4-(6-chlorobenzofuran-2-yl)-2-(1H-pyrazol-5-yl)thiazole] | 83.5% | 92.5% | 35% | 45 min
18 | FC(F)(F)c1ccc2cc(-c3csc(-c4ncco4)n3)oc2c1 [VPC-18-98, 2-(4-(6-(trifluoromethyl)benzofuran-2-yl)thiazol-2-yl)oxazole] | 84% | 86% | 53% | > 60 min
19 | Clc1ccc2cc(-c3csc(-c4ncco4)n3)oc2c1 [VPC-18-99] | 29.3% | 39.2% | 28% | 36 min
20 | Fc1sc(-c2ccco2)nc1-c1cc2ccc(C(F)(F)F)cc2o1 [VPC-18-100] | 8.8% | 56.3% | 1% | 10 min
21 | CN1CCN(c2ccc(-c3nc4ccc(C(F)(F)F)cc4n3C)o2)CC1 [VPC-18-102] | 22.6% | 55.5% | 0% | 7 min
22 | FC(F)(F)n1c(-c2ccc(-c3ccccc3)o2)nc2ccccc21 [VPC-18-103] | 88.5% | 95.3% | 0% | 9 min
23 | FC(F)(F)c1ccc2cc(-c3csc(-c4cocn4)n3)oc2c1 [VPC-18-106] | 90.6% | 90% | 7% | 16 min
24 | Clc1ccc2nc(-c3csc(-c4ccco4)n3)oc2c1 [VPC-18-107] | 36.9% | 66.9% | 7% | 8 min
25 | O=C1CCN(c2nc(-c3cc4ccc(Cl)cc4o3)cs2)C1 [VPC-18-109] | 81.7% | 91.5% | 4% | 13 min
26 | Clc1ccc2cc(-c3cncc(-c4ccc[nH]4)n3)oc2c1 [VPC-18-130] | – | – | 1% | 9 min
27 | Clc1ccc2cc(-c3cccc(-c4ccc[nH]4)c3)oc2c1 [VPC-18-153] | – | – | 2% | 11 min
28 | Clc1ccc2cc(-c3csc(-c4nccs4)n3)oc2c1 [VPC-18-165] | – | – | 6% | 16 min
29 | Fc1c(Cl)ccc2cc(-c3csc(-c4ccc[nH]4)n3)oc12 [VPC-18-166] | – | – | 1% | 10 min
